# According to PubChem BioAssay (NCI):
#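 The compound was tested at five concentrations on cells cultured in 96-well plates, with a 48-hour exposure period. The concentration for 50% growth inhibition is given as GI50. TGI marks complete inhibition of growth.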
# Experiments:
# Assay in all cases: NCI anticancer screen, dose series, 48 h
# A498 renal = system: A498 renal
# BT-549 breast = system: BT-549 breast
# COLO 205 colon = system: COLO 205 colon
# HL-60(TB) leukemia = system: HL-60(TB) leukemia
# K-562 leukemia = system: K-562 leukemia
# M14 melanoma = system: M14 melanoma
# MOLT-4 leukemia = system: MOLT-4 leukemia
# OVCAR-3 ovarian = system: OVCAR-3 ovarian
# SN12C renal = system: SN12C renal
# UACC-62 melanoma = system: UACC-62 melanoma
Structure (SMILES),TGI (A498 renal) [µM],TGI (BT-549 breast) [µM],TGI (COLO 205 colon) [µM],TGI (HL-60(TB) leukemia) [µM],TGI (K-562 leukemia) [µM],TGI (M14 melanoma) [µM],TGI (MOLT-4 leukemia) [µM],TGI (OVCAR-3 ovarian) [µM],TGI (SN12C renal) [µM],TGI (UACC-62 melanoma) [µM],GI50 (A498 renal) [µM],GI50 (BT-549 breast) [µM],GI50 (COLO 205 colon) [µM],GI50 (HL-60(TB) leukemia) [µM],GI50 (K-562 leukemia) [µM],GI50 (M14 melanoma) [µM],GI50 (MOLT-4 leukemia) [µM],GI50 (OVCAR-3 ovarian) [µM],GI50 (SN12C renal) [µM],GI50 (UACC-62 melanoma) [µM]
Nc1ccc(C(=O)N/C(=C\c2cccc([N+](=O)[O-])c2)c2nc3[nH]c(=S)[nH]c(=O)c3[nH]2)cc1,> 100,> 100,> 100,> 100,> 100,> 100,> 56.2,> 100,> 100,> 56.2,,,,,,,,,,
NCCCC[C@@H]1NC(=O)[C@H](CC(=O)O)NC(=O)CNC(=O)[C@H](CCCN=C(N)N)NC(=O)[C@@H](N)CSSC[C@@H](C(=O)O)NC(=O)[C@H](CC(=O)O)NC(=O)[C@@H]2CCCN2C(=O)CNC1=O,> 100,> 100,> 100,> 100,> 100,> 100,> 100,> 100,> 100,> 100,> 100,> 100,> 100,> 100,> 100,> 100,> 100,> 100,> 100,> 100
COc1ccc2c(c1)[nH]c(=O)c1c3cccc(F)c3cn21,> 100,> 100,1.11,0.0515,12.3,> 100,14.6,0.0774,24.4,> 100,0.0625,21.2,0.0388,0.0183,0.024,0.0463,0.0425,0.0295,0.0828,0.0379
Cc1ccc(/C=N/Nc2nc(Nc3ccccc3)nc(-n3nc(C)cc3C)n2)cc1,92.4,34.1,13.4,84.8,42.7,10.8,8.53,43.6,92.4,24.2,7.13,4,3.6,2.51,3.71,2.47,2.4,3.2,3.11,4.44
CCC(C)[C@H](NC(=O)Nc1cc(C(F)(F)F)cc(C(F)(F)F)c1)C(=O)N[C@@H](Cc1cn(C)cn1)C(=O)OC (stereo not given in full),3.4,1.68,1.89,3.22,2.44,1.98,2.24,1.14,1.05,1.86,1.6,0.698,1.4,1.35,1.06,1.11,0.873,0.621,0.544,1.11
CC(C)(C)c1ccc(Oc2ccc(N)cn2)cc1,> 100,99.8,> 100,17.4,> 100,> 100,> 100,> 100,> 100,> 100,11.7,11.3,50.7,0.545,30.1,56.4,3.96,26,4.64,61.3
Nc1nc([Se])c2ncn(C3OC(CO)C(O)C3O)c2n1 (stereo not given),> 100,> 100,72.5,> 100,> 100,> 100,> 100,68.8,> 100,> 100,17,30.6,19.3,4.49,5.59,4.28,3.4,17.4,52.9,4.16
COc1ccc(CN2c3ccccc3Sc3ccccc32)c(C(F)(F)F)c1,> 100,31.9,3.08,13.9,> 100,> 100,43.4,24.3,> 100,> 100,0.372,3.12,0.64,0.412,0.395,0.446,2.88,0.513,9.73,0.917
CCOCCCn1c2c(c3c(O)cccc31)C(=O)c1ccccc1-2,52.5,87.8,33.3,31.4,55.7,31.5,32.7,55.3,25.5,30.1,21.7,29,16,13.2,18.6,16.2,13.7,21.9,11.5,14.5
CCOC(=O)Oc1cc2c(c(OC)c1OC)-c1ccc(OC)c(=O)cc1C(NC(C)=O)CC2 (stereo not given),3.38,> 100,0.135,0.0298,> 81.3,> 70.6,22.9,0.135,> 100,25.2,,,,,,,,,,
